The results in this text go back to ChEMBL document CHEMBL1128890, “Synthesis and antifungal activities of optically active isomers of SM-8668” (1995).

Values after ≈ are worked out from the molar mass of the structure shown.

Holding throughout (type): functional
One assay has as its system Candida albicans. The assay is described as follows: Minimum inhibitory concentration required for in vitro antifungal activity against Candida albicans KB-8 strain.
For assay [1], the system named is Mus musculus. The assay is described as follows: Effective dose against Candida albicans KB-8 strain after iv administration in murine.
For assay [2], the system named is Mus musculus. The assay is described as follows: Effective dose against Candida albicans KB-8 strain after po administration in murine.
For assay [3], the system named is Mus musculus. The assay is described as follows: Effective dose against Aspergillus fumigatus MTU6001 strain after iv administration in murine.
In another assay the test system is Aspergillus fumigatus. The experiment in a line: Minimum inhibitory concentration required for in vitro antifungal activity against Aspergillus fumigatus MTU6001 strain.
For assay [4], the system named is Mus musculus. The assay is described as follows: Effective dose against Aspergillus fumigatus MTU6001 strain after po administration in murine.

As to `C[C@@H]([C@@](O)(Cn1cncn1)c1ccc(F)cc1F)S(C)(=O)=O`, the minimum inhibitory concentration (MIC) (in general, the smallest concentration in the dilution series that meets the test's criterion for growth inhibition) in the assay on Candida albicans was 50 µg/mL (≈ 151 µM); against Aspergillus fumigatus, above 800 µg/mL. For the same compound, the ED50 (as a rule, the dose at which the effect has come halfway, by size or by number of responders) with Mus musculus [1] was above 25 mg/kg; with Mus musculus [2], above 100 mg/kg; with Mus musculus [3] it was above 25 mg/kg; in the assay on Mus musculus [4], above 125 mg/kg.
With `CC(C(O)(Cn1cncn1)c1ccc(F)cc1F)S(C)(=O)=O` (racemic), the MIC against Candida albicans is 0.2 µg/mL (≈ 0.604 µM); in the assay with Aspergillus fumigatus it was 12.5 µg/mL (≈ 37.7 µM). In addition, the ED50 worked out at 0.38 mg/kg in the assay on Mus musculus [2] and 18 mg/kg with Mus musculus [4].
Consider `C[C@H]([C@](O)(Cn1cncn1)c1ccc(F)cc1F)S(C)(=O)=O` [GENACONAZOLE], for which the values for the MIC with Candida albicans and in the assay with Aspergillus fumigatus were 0.1 µg/mL (≈ 0.302 µM) and 6.25 µg/mL (≈ 18.9 µM), respectively. Moreover, the ED50 in the assay on Mus musculus [1] turned out to be 0.26 mg/kg; in the assay on Mus musculus [2] it was 0.27 mg/kg; with Mus musculus [3], 5.3 mg/kg; in the assay on Mus musculus [4], 4.1 mg/kg.
